One experiment concerns the target T1, human FPR2 (Homo sapiens, UniProt P25090).
T1 sequence (P25090 1-351): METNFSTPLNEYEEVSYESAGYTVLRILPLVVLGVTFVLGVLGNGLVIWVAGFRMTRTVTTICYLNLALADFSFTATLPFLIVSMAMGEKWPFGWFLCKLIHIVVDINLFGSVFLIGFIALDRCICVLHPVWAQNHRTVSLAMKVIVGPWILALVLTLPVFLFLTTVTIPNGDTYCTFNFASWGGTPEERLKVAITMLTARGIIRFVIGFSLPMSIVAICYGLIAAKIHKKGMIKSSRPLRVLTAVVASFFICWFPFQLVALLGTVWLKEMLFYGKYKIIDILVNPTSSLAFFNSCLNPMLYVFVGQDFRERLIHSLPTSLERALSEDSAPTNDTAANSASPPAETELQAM
As to the kind of experiment: FPR2 cyclic adenosine monophosphate (cAMP) assay. The experiment is classed as cell-based. To be noted: CHO cells overexpressing human FPR2; forskolin 5 μM; inhibition of cAMP production; HTRF; read-out: hFPR2 cAMP2 EC50. The method, boiled down:
(§1)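 Gi-coupled activity is read as suppression of forskolin-stimulated cAMP (10 μM final for FPR1, 5 μM final for FPR2; IBMX 200 μM final) in recombinant CHO cells, 30 min incubation at rt, HTRF detection.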
(Cyclic AMP is a second messenger, typically raised through Gs and lowered through Gi signalling.)

A further experiment deals with T2, human FPR1 (Homo sapiens, UniProt P21462).
T2 sequence (P21462 1-350): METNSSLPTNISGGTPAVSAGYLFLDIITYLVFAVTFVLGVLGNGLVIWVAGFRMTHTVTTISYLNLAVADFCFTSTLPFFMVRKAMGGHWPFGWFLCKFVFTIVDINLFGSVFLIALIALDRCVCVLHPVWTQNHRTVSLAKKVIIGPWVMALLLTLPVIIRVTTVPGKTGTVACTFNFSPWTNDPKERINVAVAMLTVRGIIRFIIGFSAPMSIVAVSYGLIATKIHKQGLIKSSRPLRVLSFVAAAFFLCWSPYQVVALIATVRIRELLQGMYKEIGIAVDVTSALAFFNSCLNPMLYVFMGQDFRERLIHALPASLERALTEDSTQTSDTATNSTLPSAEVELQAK
As to the kind of experiment: FPR1 cyclic adenosine monophosphate (cAMP) assay. As to conditions: CHO cells overexpressing human FPR1; forskolin 10 μM; inhibition of cAMP production; HTRF; read-out: hFPR1 cAMP2 EC50. It is filed as cell-based. The method, boiled down: as §1

Each structure is given as a SMILES string. pEC50: −log10 of the molar value.

Usually pEC50 stands for the negative decadic logarithm of the EC50, by convention in mol/L. On to `COc1cc(F)c(-c2c(NC(=O)c3ccc(OC(F)(F)F)cc3)c(=O)n(-c3cccc(C4CC4)n3)n2C)c(F)c1` [Example 167, N-[2-(6-cyclopropylpyridin-2-yl)-5-(2,6-difluoro-4-methoxyphenyl)-1-methyl-3-oxo-2,3-dihydro-1H-pyrazol-4-yl]-4-(trifluoromethoxy)benzamide], for which the negative-log EC50 (pEC50) on human FPR2 is 8.40; at human FPR1 it was 6.34.

Regarding `COc1cc(C2CCCN(CCO)C2)nc(-n2c(=O)c(NC(=O)c3ccc(OC(F)F)cc3)c(-c3c(F)cc(OC)cc3F)n2C)c1` (centres unmarked) [Example 340, N-(5-(2,6-Difluoro-4-methoxyphenyl)-2-(6-(1-(2-hydroxyethyl)piperidin-3-yl)-4-methoxypyridin-2-yl)-1-methyl-3-oxo-2,3-dihydro-1H-pyrazol-4-yl)-4-(difluoromethoxy)benzamide], the pEC50 is 8.00 at human FPR2 and under 5.00 at human FPR1.

Regarding `Cn1c(-c2ccc(OC(F)F)cc2)c(NC(=O)c2ccc(OC(F)F)cc2)c(=O)n1-c1ncccc1C(F)(F)F` [Example 281, 4-(difluoromethoxy)-N-{5-[4-(difluoromethoxy)phenyl]-1-methyl-3-oxo-2-[3-(trifluoromethyl)pyridin-2-yl]-2,3-dihydro-1H-pyrazol-4-yl}benzamide], the values for the pEC50 at human FPR2 and at human FPR1 were 7.74 and 6.30, respectively.

Regarding `COc1cc(F)c(-c2c(NC(=O)c3ccc(OC(F)F)cc3)c(=O)n(-c3nc(Nc4cn(C)nc4C)ccc3C(F)(F)F)n2C)c(F)c1` [Example 228, N-[5-(2,6-difluoro-4-methoxyphenyl)-2-{6-[(1,3-dimethyl-1H-pyrazol-4-yl)amino]-3-(trifluoromethyl)pyridin-2-yl}-1-methyl-3-oxo-2,3-dihydro-1H-pyrazol-4-yl]-4-(difluoromethoxy)benzamide], the figures for the negative-log EC50 (pEC50) on human FPR2 and on human FPR1 were 9.00 and under 5.30, respectively.

Regarding `COc1cc(F)c(-c2c(NC(=O)c3ccc(OC(F)F)cc3)c(=O)n(-c3cccc(OC)n3)n2C)c(F)c1` [Example 75, N-[5-(2,6-difluoro-4-methoxyphenyl)-2-(6-methoxypyridin-2-yl)-1-methyl-3-oxo-2,3-dihydro-1H-pyrazol-4-yl]-4-(difluoromethoxy)benzamide], the values for the pEC50 at human FPR2 and on human FPR1 were 8.15 and 5.64, respectively.

Take `COc1cc(F)c(-c2c(NC(=O)c3ccc(-n4cccn4)cc3)c(=O)n(-c3ccccc3)n2C)c(F)c1` [Example 23, N-[5-(2,6-difluoro-4-methoxyphenyl)-1-methyl-3-oxo-2-phenyl-2,3-dihydro-1H-pyrazol-4-yl]-4-(1H-pyrazol-1-yl)benzamide]: the pEC50 on human FPR2 was 6.82; on human FPR1 it was 5.52.

Take `COC(=O)c1cccc(-n2c(=O)c(NC(=O)c3ccc(OC(F)F)cc3)c(-c3c(F)cc(OC)cc3F)n2C)c1` [Example 113, methyl 3-[3-(2,6-difluoro-4-methoxyphenyl)-4-[4-(difluoromethoxy)benzamido]-2-methyl-5-oxo-2,5-dihydro-1H-pyrazol-1-yl]benzoate]: the pEC50 at human FPR2 and at human FPR1 was 8.70 throughout.

As to `COc1cc(F)c(-c2c(NC(=O)c3ccc(OC(F)F)cc3)c(=O)n(-c3cc(C)cc(OC4CCOC4)n3)n2C)c(F)c1` (centres unmarked) [Example 360, N-(5-(2,6-Difluoro-4-methoxyphenyl)-1-methyl-2-(4-methyl-6-((tetrahydrofuran-3-yl)oxy)pyridin-2-yl)-3-oxo-2,3-dihydro-1H-pyrazol-4-yl)-4-(difluoromethoxy)benzamide], the values for the pEC50 at human FPR2 and at human FPR1 were 8.40 and under 5.00, respectively.

For `COc1cc(F)c(-c2c(NC(=O)c3ccc(OC(F)F)cc3)c(=O)n(-c3nc(C(F)(F)F)ccc3Br)n2C)c(F)c1` [Example 159, N-{2-[3-bromo-6-(trifluoromethyl)pyridin-2-yl]-5-(2,6-difluoro-4-methoxyphenyl)-1-methyl-3-oxo-2,3-dihydro-1H-pyrazol-4-yl}-4-(difluoromethoxy)benzamide], the results for the negative logarithm of the EC50 (pEC50) on human FPR2 and on human FPR1 were 8.15 and under 5.00, respectively.

For `CNc1ccc(Cl)nc1-n1c(=O)c(NC(=O)c2ccc(OC(F)F)cc2)c(-c2c(F)cc(OC)cc2F)n1C` [Example 215, N-{2-[6-chloro-3-(methylamino)pyridin-2-yl]-5-(2,6-difluoro-4-methoxyphenyl)-1-methyl-3-oxo-2,3-dihydro-1H-pyrazol-4-yl}-4-(difluoromethoxy)benzamide], the pEC50 at human FPR2 is 8.30; at human FPR1, under 5.00.

For the molecule `COc1cc(F)c(-c2c(NC(=O)c3ccc(OC(F)F)cc3)c(=O)n(-c3cc(C4CCN(C)CC4)cc(C)n3)n2C)c(F)c1` [Example 324, N-(5-(2,6-Difluoro-4-methoxyphenyl)-1-methyl-2-(6-methyl-4-(1-methylpiperidin-4-yl)pyridin-2-yl)-3-oxo-2,3-dihydro-1H-pyrazol-4-yl)-4-(difluoromethoxy)benzamide], the figures for the pEC50 on human FPR2 and on human FPR1 were 8.30 and under 5.00, respectively.

In the case of `COc1cc(F)c(-c2c(NC(=O)c3ccc(OC(F)F)cc3)c(=O)n(-c3cc(C(F)(F)F)ccn3)n2C)c(F)c1` [Example 62, N-[5-(2,6-difluoro-4-methoxyphenyl)-1-methyl-3-oxo-2-[4-(trifluoromethyl)pyridin-2-yl]-2,3-dihydro-1H-pyrazol-4-yl]-4-(difluoromethoxy)benzamide], the pEC50 is 8.22 on human FPR2 and under 5.00 at human FPR1.

Regarding `COc1cc(F)c(-c2c(NC(=O)c3ccc(OC(F)F)cc3)c(=O)n(-c3nc(N4CCN(C)CC4)ccc3F)n2C)c(F)c1` [Example 219, N-[5-(2,6-difluoro-4-methoxyphenyl)-2-[3-fluoro-6-(4-methylpiperazin-1-yl)pyridin-2-yl]-1-methyl-3-oxo-2,3-dihydro-1H-pyrazol-4-yl]-4-(difluoromethoxy)benzamide], the pEC50 on human FPR2 is 8.00; at human FPR1, 5.49.

`Cn1c(-c2ccc(OC(F)F)cc2)c(NC(=O)c2ccc(OC(F)F)cc2)c(=O)n1-c1nc(Cl)ccc1C(F)(F)F` [Example 317, N-{2-[6-chloro-3-(trifluoromethyl)pyridin-2-yl]-5-[4-(difluoromethoxy)phenyl]-1-methyl-3-oxo-2,3-dihydro-1H-pyrazol-4-yl}-4-(difluoromethoxy)benzamide]: the results for the pEC50 at human FPR2 and at human FPR1 were 7.85 and 5.74, respectively.

Take `COc1cc(F)c(-c2c(NC(=O)c3ccc(OC(F)F)cc3)c(=O)n(-c3nc(NC[C@H](O)C(F)(F)F)ccc3C(F)(F)F)n2C)c(F)c1` [Example 274, N-[5-(2,6-difluoro-4-methoxyphenyl)-1-methyl-3-oxo-2-(6-{[(2S)-3,3,3-trifluoro-2-hydroxypropyl]amino}-3-(trifluoromethyl)pyridin-2-yl)-2,3-dihydro-1H-pyrazol-4-yl]-4-(difluoromethoxy)benzamide]: the results for the pEC50 on human FPR2 and on human FPR1 were 8.70 and under 5.30, respectively.

`COc1cc(F)c(-c2c(NC(=O)c3ccc(OC(F)F)cc3)c(=O)n(-c3nc(Cl)ccc3F)n2C)c(F)c1` [Example 146, N-[2-(6-chloro-3-fluoropyridin-2-yl)-5-(2,6-difluoro-4-methoxyphenyl)-1-methyl-3-oxo-2,3-dihydro-1H-pyrazol-4-yl]-4-(difluoromethoxy)benzamide]: the pEC50 at human FPR2 is 8.22; at human FPR1, under 5.00.

With `COc1cc(F)c(-c2c(NC(=O)c3ccc(OC(F)F)cc3)c(=O)n(-c3nc(Cl)ccc3N3CC(C)(O)C3)n2C)c(F)c1` [Example 203, N-{2-[6-chloro-3-(3-hydroxy-3-methylazetidin-1-yl)pyridin-2-yl]-5-(2,6-difluoro-4-methoxyphenyl)-1-methyl-3-oxo-2,3-dihydro-1H-pyrazol-4-yl}-4-(difluoromethoxy)benzamide], the pEC50 on human FPR2 is 8.30; on human FPR1 it was under 5.00.

Regarding `COc1ccc(-c2c(NC(=O)c3ccc(OC(F)F)cc3)c(=O)n(-c3ncccc3Cl)n2C)c(F)c1` [Example 262, N-[2-(3-chloropyridin-2-yl)-5-(2-fluoro-4-methoxyphenyl)-1-methyl-3-oxo-2,3-dihydro-1H-pyrazol-4-yl]-4-(difluoromethoxy)benzamide], the pEC50 on human FPR2 was 7.60; at human FPR1, 5.70.

As to `COc1cc(F)c(-c2c(NC(=O)c3ccc(OC(F)F)cc3)c(=O)n(-c3ccnc(Cl)c3)n2C)c(F)c1` [Example 116, N-[2-(2-chloropyridin-4-yl)-5-(2,6-difluoro-4-methoxyphenyl)-1-methyl-3-oxo-2,3-dihydro-1H-pyrazol-4-yl]-4-(difluoromethoxy)benzamide], the pEC50 was 7.68 on human FPR2 and 5.70 on human FPR1.

Source of the values: patent US12577206B2 (BRISTOL-MYERS SQUIBB COMPANY, priority 2020, dated 2026).
